In data set [1] the target is T1, recombinant HIV-1 NCp7 protein (Human immunodeficiency virus type 1 group M subtype B, UniProt P03347).
T1 construct: recombinant HIV-1 NCp7 protein
As to the kind of experiment: Trp37 zinc finger fluorescence (zinc ejection) assay. To be noted: for zinc finger reactivity in the presence of glutathione (in words): 2 molar excess of glutathione; for Zinc Finger Reactivity RFU/min: average decrease in relative fluorescence units over 30 min; for inhibition at 2000 µM (stock): Table 8, GSH +: 2 mM compound, 2 h at 37° C. with 4 mM reduced glutathione, 30 min incubation, read-out: Zinc Finger Reactivity % Decrease. The format is biochemical.

The next data set concerns the target T2, Sp1 (Homo sapiens, UniProt P08047).
T2 construct: treatment of K562 cell nuclear extracts with the compounds; host or cells: K562 cell nuclear extracts
In words: Sp1 super gel shift EMSA (K562 cell nuclear extracts). In kind it is biochemical. To be noted: specificity for CCHC vs CCHH zinc finger. As to the method: To determine if compound 44, 45 or 47 binding activity was specific for CCHC zinc fingers, a super gel shift EMSA after treatment of K562 cell nuclear extracts with the compounds was performed. This was followed by super shifting with Sp1-specific antibody. Sp1 was chosen because it is a cellular transcription factor that contains three copies of a classical type CCHH zinc finger motif that are required for Sp1 binding to its DNA target. […] Super gel shifting to determine the specificity of zinc finger reactive compounds was carried out using an Sp1 consensus oligomer (Stratagene, La Jolla, Calif.), K562 cell nuclear extracts, and antibodies for Sp1 (Sp1[PEP2]-G) (extracts and Sp1 Abs from Santa Cruz Biotechnology, Inc., Santa Cruz, Calif.). The binding reactions of oligonucleotides with K562 nuclear extract, as well as electrophoretic conditions were carried out as described in the Gelshift Buffer Kit, Stratagene , La Jolla, Calif.
(In general: A gel shift assay detects complexes by their altered migration in electrophoresis.)

In a further data set the test system is U1 cells. As to the kind of experiment: Cell viability of TNFα-induced U1 cells. The format is cell-based. As to the method:
Thiolester compounds were also tested for their ability to. inhibit HIV-1 replication in TNFα-induced U1 and ACH-2 cells. U1 cells were induced with 5 ng/ml of TNFα in the presence of various concentrations of the thiolesters 44, 45 or 47. Forty-eight hours later the cultures were characterized for virus p24 antigen production and cell viability. […] Compound 44 killed 60% of the cells at 200 μM. […] Precursor processing evaluation performed as described by Turpin (1997) Antiviral Chem. Chemother. 8:60-69. Thus, thiolester PATEs initiate intracellular disulfide cross-linking of precursor polyproteins during late phase virus assembly and mediate a direct virucidal effect via an attack on the mature NCp7 retroviral zinc fingers in the cell-free virus.

The subject of a further data set is CEM-SS cells. As to the kind of experiment: cells. In kind it is cell-based. To be noted: for IC50: 50% cytotoxicity, read-out: IC50.
In another data set the test system is virus attachment. In words: cell-based p24 attachment assay. On the set-up: species or system HIV-1. As to the method:
The cell-based p24 attachment assay was performed as described in Rice (1995) Science 270:1194-1197. Viral inactivation assays were carried out as described in Rice (1995) Science 270:1194-1197, and Turpin (1997) supra, with minor modifications. Briefly, MAGI-CCR-5 cells were plated (4×10^4 cells per well) in flat bottomed 2-cm well plates for 24 h, after which the culture media was removed and compound-treated virus was added. The virus used was obtained by transient transfection of pNL4-3 into HeLa cells yielding the replication competent NL4-3 virus. Virus containing supernatants were treated for 2 h at 37° C. after which residual compound was removed by centrifugation (18,000×g, 1 h, 4° C.). Virus pellets were resuspended and placed on the MAGI-CCR-5 monolayers and cultured for 48 h. Monolayers were fixed and stained with X-gal solution and blue cells counted.

The subject of data set [2] is fusion of the HL2/3 and MAGI-CCR-5 cells. As to the kind of experiment: viral fusion assay (HL2/3 and MAGI-CCR-5 co-culture). The format is cell-based. As to the method:
Determination of the effect of the test compounds on viral fusion were carried out as follows. Briefly, HL2/3 cells stably expressing HIV-1 Tat and cell surface gp120 and MAGI-CCR-5 cells stably expressing CD4 and CCR5 on their cell surface, containing a β-galactosidase reporter gene under the control of the HIV-1 LTR were pretreated with test compound for 1 h at 37° C. After incubation, the cells were mixed in […] (2×10^5 MAGI-CCR-5 to 8×10^5 HL2/3 cells) and co-cultured for 18 h at 37° C.; cultures were fixed and stained with X-gal solution for β-galactosidase activity. Blue cells represented the Tat transactivation of the HV-1 LTR upon fusion of the HL2/3 and MAGI-CCR-5 cells via the CD4/CCR5 co-receptor gp120 interaction.

Where [3] appears, read: Human immunodeficiency virus 1, Table 7, high dose test 100 μM, read-out: Attachment I50.

Like-named read-outs stand apart in the source and are kept apart here. Bounds are passed on as bounds.

T2 sequence (P08047 whole entry): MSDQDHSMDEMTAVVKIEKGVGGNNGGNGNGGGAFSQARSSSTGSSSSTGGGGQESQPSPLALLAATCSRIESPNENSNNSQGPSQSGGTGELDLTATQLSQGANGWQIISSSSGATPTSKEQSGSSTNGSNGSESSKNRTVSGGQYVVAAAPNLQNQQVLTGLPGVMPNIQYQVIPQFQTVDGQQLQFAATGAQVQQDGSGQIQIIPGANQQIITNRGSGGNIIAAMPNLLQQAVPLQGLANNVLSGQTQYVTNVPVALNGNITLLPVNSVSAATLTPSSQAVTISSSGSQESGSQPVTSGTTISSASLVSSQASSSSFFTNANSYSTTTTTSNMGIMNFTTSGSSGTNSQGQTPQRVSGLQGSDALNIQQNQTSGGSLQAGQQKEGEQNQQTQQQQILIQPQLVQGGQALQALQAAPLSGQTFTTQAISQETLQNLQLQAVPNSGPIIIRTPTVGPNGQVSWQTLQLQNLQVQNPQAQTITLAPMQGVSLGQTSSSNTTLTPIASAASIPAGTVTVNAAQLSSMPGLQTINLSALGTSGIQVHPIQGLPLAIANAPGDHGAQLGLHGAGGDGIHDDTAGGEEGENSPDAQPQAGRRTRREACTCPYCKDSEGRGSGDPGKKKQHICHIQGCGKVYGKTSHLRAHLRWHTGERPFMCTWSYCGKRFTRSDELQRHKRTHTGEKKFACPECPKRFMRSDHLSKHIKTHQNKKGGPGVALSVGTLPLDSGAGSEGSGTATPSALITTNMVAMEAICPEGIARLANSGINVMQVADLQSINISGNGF

For the molecule `CC(=O)NS(=O)(=O)c1ccc(NC(=O)c2ccccc2SC(=O)CCCCBr)cc1` [Compound 44, N-[2-(5-bromovaleroylthio)benzoyl]sulfacetamide], in data set [1], the “zinc finger reactivity (in words)” value was “promoted metal ion (zinc) ejection”, the “zinc finger reactivity in the presence of glutathione (in words)” value (from here on “zinc finger reactivity in the presence”) was “maintained the capacity to attack the cysteine thiols” and the inhibition at 2000 µM (stock) was 28%. Also, the “Zinc Finger Reactivity RFU/min” value in data set [1] (Table 5) turned out to be 1.8 RFU/min. Also, the “Zinc Finger Reactivity RFU/min” value in data set [1] (Table 6) came out at 1.8 RFU/min. Moreover, the “effect on super shifting of Sp1 bound to its DNA target” value (shortened to “effect on super shifting of Sp1 bound”) on Sp1 is on record as “failed to alter the pattern of super shifting of Sp1”. Moreover, the cells killed with U1 cells (U1 cells, at 200 μM) amounted to 60%. Further, the “cellular toxicity in U1 cells” value in the data set with U1 cells (high test dose of 100 μM) was “No cellular toxicity”. In addition, in the data set with CEM-SS cells (Table 5), the IC50 turned out to be 184.5 µM. In addition, the “inhibition of virus attachment (in words)” value in the data set on virus attachment is listed as “did not inhibit”. For the same molecule, the IC50 in the data set with virus attachment (setting [3]) is more than 100 µM. The “inhibition of fusion to host cells (in words)” value (shortened to “inhibition of fusion”) in data set [2] is “did not inhibit”.
On to `CC(=O)NS(=O)(=O)c1ccc(NC(=O)c2ccccc2SC(=O)CCCC[n+]2ccccc2)cc1` [Compound 45, N-[2-(5-pyridinio-valeroylthio)benzoyl]sulfacetamide bromide], for which the “zinc finger reactivity (in words)” value in data set [1] is reported as “promoted metal ion (zinc) ejection”. Further, the “zinc finger reactivity / zinc ejection rate” value in data set [1] worked out at 3.6 RFU/min. For the same molecule, the “zinc finger reactivity in the presence” value in data set [1] is “maintained the capacity to attack the cysteine thiols”. The “Zinc Finger Reactivity RFU/min” value in data set [1] (Table 5), in data set [1] (Table 6) and in data set [1] (Table 10) was 3.6 RFU/min in each case. Besides, the inhibition at 2000 µM (stock) in data set [1] came to 36.9%. Further, on Sp1, the “effect on super shifting of Sp1 bound” value is on record as “failed to alter the pattern of super shifting of Sp1”. Further, the “cellular toxicity in U1 cells” value with U1 cells (high test dose of 100 μM) is given as “No cellular toxicity”; with U1 cells (higher dose testing (300 μM)), “no toxicity”. Moreover, the IC50 is more than 316 µM in the data set with CEM-SS cells (Table 5), more than 316 µM in the data set on CEM-SS cells (Table 10) and more than 100 µM in the data set on virus attachment (setting [3]). For the same molecule, in the data set with CEM-SS cells (high test dose of 316 μM), the “cellular toxicity (in words)” value is “no toxicity”. Further, the “inhibition of virus attachment (in words)” value with virus attachment is “did not inhibit”. For the same molecule, in data set [2], the “inhibition of fusion” value is “did not inhibit”.
For `O=C(CCCC[n+]1ccccc1)Sc1ccccc1C(=O)Nc1ccc(S(=O)(=O)c2ccc([N+](=O)[O-])cc2)cc1` [Compound 47], in data set [1], the “zinc finger reactivity (in words)” value is given as “promoted metal ion (zinc) ejection”, the “zinc finger reactivity in the presence” value is listed as “maintained the capacity to attack the cysteine thiols” and the inhibition at 2000 µM (stock) was found to be 21.1%. Also, the “Zinc Finger Reactivity RFU/min” value in data set [1] (Table 6) came to 4.1 RFU/min. The “effect on super shifting of Sp1 bound” value at Sp1 was “failed to alter the pattern of super shifting of Sp1”. Also, the “cellular toxicity in U1 cells” value with U1 cells (high test dose of 100 μM) is “No cellular toxicity”. Also, the “cellular toxicity in U1 cells” value in the data set with U1 cells (higher dose testing (300 μM)) is on record as “no toxicity”. Besides, the “inhibition of virus attachment (in words)” value with virus attachment is “did not inhibit”. The IC50 in the data set on virus attachment (Human immunodeficiency virus 1, read-out: Attachment I50) is more than 100 µM. For the same molecule, the “inhibition of fusion” value in data set [2] was “did not inhibit”.
Regarding `O=C(O)CCCC[n+]1ccccc1.[Br-]` [Compound 53, 5-pyridiniovaleric acid], the “zinc finger reactivity / zinc ejection rate” value in data set [1] is 4 RFU/min. The “Zinc Finger Reactivity RFU/min” value in data set [1] (Table 6) turned out to be 4 RFU/min. Moreover, in the data set on CEM-SS cells (Homo sapiens, CEM-SS, Table 6), the IC50 was more than 316 µM.

The values above are taken from patent publication US7625917B2, “Thiolesters and uses thereof” (priority 1998, dated 2009).
